The target of one series is mushroom tyrosinase (Agaricus bisporus, UniProt C7FF04). Nature of the series: Mushroom tyrosinase inhibitory assay (o-diphenolase activity, L-DOPA as substrate).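 On all read-outs here: enzyme and test sample preincubated 10 min at 25 °C in pH 6.8 phosphate buffer, 50% DMSO vehicle as control, enzyme-free mixture as blank.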 Format: biochemical. The note with it: for inhibition at 200 µM: read-out: Mushroom Tyrosinase Inhibition % Inhibition (at 200 μM); for inhibitory activity on mushroom tyrosinase (in words): o-diphenolase; for behaviour as substrate of mushroom tyrosinase (in words): pre-incubation with enzyme in absence of L-DOPA, coloured product at 475 nm.
Chain of mushroom tyrosinase (G1K3P4 entry or part of it): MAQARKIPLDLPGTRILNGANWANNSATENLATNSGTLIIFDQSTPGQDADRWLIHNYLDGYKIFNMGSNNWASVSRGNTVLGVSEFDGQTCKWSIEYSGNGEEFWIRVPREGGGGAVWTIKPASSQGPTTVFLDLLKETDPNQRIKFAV
Chain of mushroom tyrosinase (C7FF04 2-392): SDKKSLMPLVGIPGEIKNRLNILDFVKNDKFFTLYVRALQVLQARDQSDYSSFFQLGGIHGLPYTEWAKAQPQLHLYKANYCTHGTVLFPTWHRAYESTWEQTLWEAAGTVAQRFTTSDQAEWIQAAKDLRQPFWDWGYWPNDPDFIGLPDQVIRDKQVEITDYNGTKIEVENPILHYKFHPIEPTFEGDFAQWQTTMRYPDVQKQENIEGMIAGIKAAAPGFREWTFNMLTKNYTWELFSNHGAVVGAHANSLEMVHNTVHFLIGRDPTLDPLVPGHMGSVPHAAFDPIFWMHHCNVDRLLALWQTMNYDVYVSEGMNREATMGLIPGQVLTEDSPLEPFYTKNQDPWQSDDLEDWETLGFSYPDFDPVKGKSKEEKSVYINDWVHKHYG

The target of the next series is T1, murine tyrosinase (Mus musculus, UniProt P11344).
T1 construct: The cells were lysed by vortex and incubated at 4 °C for 1 h to solubilize the tyrosinase enzyme; endogenous in cells; host or cells: B16-F10 melanoma cells (Triton X-100 lysate, dialyzed)
T1 sequence (P11344 19-533): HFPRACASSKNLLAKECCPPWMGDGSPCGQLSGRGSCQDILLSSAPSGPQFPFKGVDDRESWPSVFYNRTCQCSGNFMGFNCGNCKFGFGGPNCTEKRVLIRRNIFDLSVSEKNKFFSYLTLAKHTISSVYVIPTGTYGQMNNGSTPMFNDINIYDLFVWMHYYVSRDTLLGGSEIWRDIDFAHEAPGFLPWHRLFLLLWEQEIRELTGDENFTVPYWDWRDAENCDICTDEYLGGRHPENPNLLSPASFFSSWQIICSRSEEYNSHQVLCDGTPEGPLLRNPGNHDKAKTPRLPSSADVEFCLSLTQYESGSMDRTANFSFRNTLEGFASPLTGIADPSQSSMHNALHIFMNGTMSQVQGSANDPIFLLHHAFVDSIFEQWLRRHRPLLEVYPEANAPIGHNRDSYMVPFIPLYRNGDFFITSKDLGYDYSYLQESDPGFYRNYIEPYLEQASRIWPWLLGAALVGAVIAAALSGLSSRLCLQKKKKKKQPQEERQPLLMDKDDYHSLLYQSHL
Nature of the series: Murine tyrosinase inhibitory assay (o-diphenolase activity, crude enzyme from B16-F10 melanoma cells).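 Further: crude tyrosinase taken from lysed, dialyzed B16-F10 cell extract, with the inhibition reaction incubated for 2 h at 37 °C.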 It counts as biochemical. The note with it: 200 μM, L-DOPA substrate.

A short description of series [1]: Cell viability assay (PrestoBlue resazurin).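 Further: mouse B16-F10 melanoma cells exposed to test samples for 72 h, with viability read as fluorescence of resorufin formed when living cells reduce PrestoBlue resazurin.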 The note with it: mouse. Format: cell-based, Mus musculus (mouse). (The colour change of resazurin is a common sign of viable cells or microbes.)
In a further series the test system is B16-F10 melanoma cells. The experiment in a line: Total melanin content assay. To be noted: for activity at 15 µM / activity at 30 µM: Mus musculus, B16-F10, 72 h, relative to control, read-out: % Melanin Content. Format: cell-based, Mus musculus (mouse). As to the method: Mus musculus (mouse) melanoma cell line, B16-F10 (ATCC® Number: CRL-6475™, Manassas, VA, USA), was cultured in complete Dulbecco′s Modified Eagle′s Medium (DMEM, phenol red-free medium) containing 10% fetal bovine serum, 25 mM glucose, 4 mM L-glutamine, 1 mM sodium pyruvate, 10 μg/mL penicillin, and 10 μg/mL streptomycin, at 37 °C, with 5% carbon dioxide (CO2) in a humidified atmosphere.
The total melanin content, produced both extracellularly and intracellularly, was determined as follows: B16-F10 cells were seeded onto a 24-well plate at a concentration of 50,000 cells/0.5 mL/well and were incubated for 24 h, followed by treatment with either the test compounds or the control (0.5% DMSO), and then incubated for 72 h. For extraction, the total produced melanin and 0.5 mL of 2 N NaOH containing 20% DMSO were added directly to the cell culture medium, mixed by pipetting and then incubated at room temperature for 1 h. The lysed cell extract was centrifuged at 13,000× g for 5 min. Finally, the supernatant was transferred to a 96-well plate and the relative melanin content was detected at 405 nm using a micro plate reader. Kojic acid and oxyresveratrol were used as positive controls.

The mark [2] stands for this setting: read-out: Murine Tyrosinase Inhibition, % (at 200 μM), symbol.
[3] abbreviates: B16-F10 melanoma cells, 15 μM, 72 h, relative to control, read-out: % Cell Viability.
Where [4] appears, read: B16-F10 melanoma cells, 30 μM, 72 h, relative to control, read-out: % Cell Viability.
Setting [5] is: read-out: Murine Tyrosinase Inhibition, % (at 200 μM).

What is called inhibition is the percentage by which the read-out fell short of the control. The viability is a read-out of living cells in per cent, often relative to untreated cells.

Like-named read-outs stand apart in the source and are kept apart here.

For `COc1ccc(-c2coc3cc(O)cc(O)c3c2=O)cc1` [Compound 3, Biochanin A], the inhibition at 200 µM on mushroom tyrosinase (200 μM, L-DOPA substrate) was 9.2 ± 0.4%; on murine tyrosinase (setting [2]) it was < 0%. Moreover, the “inhibitory activity on mushroom tyrosinase (in words)” value at mushroom tyrosinase (L-DOPA substrate) is “did not show inhibitory activity”. Besides, in series [1] (setting [3]), the viability at 72 h, 15 µM is 103 ± 4.5%. The viability at 72 h, 30 µM in series [1] (setting [4]) was determined as 102 ± 4.8%. The activity at 15 µM in the series on B16-F10 melanoma cells amounted to 165 ± 5.9%. Also, the activity at 30 µM in the series with B16-F10 melanoma cells (30 μM) was 168 ± 5.1%.
Turning to `COc1ccc([C@H]2COc3cc(O)cc(O)c3C2=O)c(OC)c1O` [Compound 17, (3S)-Secundiflorol H], the inhibition at 200 µM is 44 ± 3.7% on mushroom tyrosinase (200 μM, L-DOPA substrate) and < 0% at murine tyrosinase (setting [2]). The viability at 72 h, 15 µM in series [1] (setting [3]) turned out to be 109 ± 6.6%. Moreover, in series [1] (setting [4]), the viability at 72 h, 30 µM stood at 103 ± 4.1%. The activity at 15 µM in the series with B16-F10 melanoma cells worked out at 118 ± 17.7%. In addition, the activity at 30 µM in the series with B16-F10 melanoma cells (30 μM) is 146 ± 6.1%.
In turn, `COc1ccc(C2COc3cc(O)cc(O)c3C2=O)cc1O` [Compound 16, (3R,S)-Kenusanone G] gave an inhibition at 500 µM against mushroom tyrosinase (L-DOPA substrate) of 0%. In addition, the inhibition at 200 µM at murine tyrosinase (setting [2]) was < 0%. Besides, in series [1] (setting [3]), the viability at 72 h, 15 µM stood at 124 ± 1.7%. Also, the viability at 72 h, 30 µM in series [1] (setting [4]) turned out to be 102 ± 2.8%. In the series with B16-F10 melanoma cells, the activity at 15 µM is 133 ± 5.1%. Also, in the series on B16-F10 melanoma cells (30 μM), the activity at 30 µM came to 158 ± 13.5%.
On to `Oc1cc(O)cc(/C=C/c2ccc(O)cc2O)c1` [Oxyresveratrol, reference compound], for which the inhibition at 200 µM on mushroom tyrosinase was determined as 98.4 ± 1.1%. In addition, in series [1] (% Cell Viability), the viability at 72 h, 15 µM was 117 ± 2.2% and the viability at 72 h, 30 µM was found to be 118 ± 5.1%. Besides, the activity at 15 µM in the series on B16-F10 melanoma cells came out at 24.3 ± 1.1%. Moreover, the activity at 30 µM in the series on B16-F10 melanoma cells (30 μM) was 28.4 ± 1.7%.
Compound `COc1ccc(C2COc3cc(O)ccc3C2=O)c(O)c1OC` (stereo not drawn) [Compound 13, Dalparvin B] showed an inhibition at 500 µM against mushroom tyrosinase (L-DOPA substrate) of 4%. For the same compound, the inhibition at 200 µM on murine tyrosinase (setting [5]) amounted to 9.8 ± 2.8%. Besides, in series [1] (setting [3]), the viability at 72 h, 15 µM stood at 82.3 ± 5.4%. Also, the viability at 72 h, 30 µM in series [1] (setting [4]) worked out at 74.1 ± 6.4%. For the same compound, the activity at 15 µM in the series on B16-F10 melanoma cells came out at 102 ± 2.7%. For the same compound, in the series with B16-F10 melanoma cells (30 μM), the activity at 30 µM was 99.1 ± 2.3%.
`O=C1C[C@@H](c2ccc(O)cc2)Oc2cc(O)cc(O)c21` [Compound 25, (2S)-Naringenin]: at mushroom tyrosinase, the “behaviour as substrate of mushroom tyrosinase (in words)” value is given as “chromogenic substrate analogs”. Further, on murine tyrosinase (setting [2]), the inhibition at 200 µM was < 0%. Moreover, in series [1] (setting [3]), the viability at 72 h, 15 µM was 94.3 ± 2%. The viability at 72 h, 30 µM in series [1] (setting [4]) came to 98.1 ± 0.5%. In addition, in the series on B16-F10 melanoma cells (30 μM), the “effect on melanin content (in words, Figure 1)” value was “increased the melanin content” and the activity at 30 µM was determined as 152 ± 3.8%. Also, the activity at 15 µM in the series with B16-F10 melanoma cells is 132 ± 14.5%.
Regarding `COc1ccc([C@@H]2COc3cc(O)ccc3C2)c(OC)c1O` [Compound 20, (3R)(+)-Mucronulatol], the inhibition at 200 µM on mushroom tyrosinase (200 μM, L-DOPA substrate) came out at 48.3 ± 1.6%; on murine tyrosinase (setting [5]) it was 12.8 ± 2.1%. The viability at 72 h, 15 µM in series [1] (setting [3]) turned out to be 104 ± 6.9%. In series [1] (setting [4]), the viability at 72 h, 30 µM was found to be 102 ± 2.7%. Further, the activity at 15 µM with B16-F10 melanoma cells worked out at 179 ± 15.9%. Moreover, the activity at 30 µM in the series on B16-F10 melanoma cells (30 μM) amounted to 264 ± 8.2%.
Take `COc1cc(-c2coc3cc(O)cc(O)c3c2=O)ccc1O` [Compound 6, 3′-O-Methylorobol]: the inhibition at 200 µM on mushroom tyrosinase (200 μM, L-DOPA substrate) was 14.3 ± 1.1%; at murine tyrosinase (setting [2]), < 0%. For the same compound, the “inhibitory activity on mushroom tyrosinase (in words)” value against mushroom tyrosinase (L-DOPA substrate) is given as “did not show inhibitory activity”. Besides, the viability at 72 h, 15 µM in series [1] (setting [3]) stood at 107 ± 6.2%. Also, the viability at 72 h, 30 µM in series [1] (setting [4]) stood at 102 ± 2.7%. Besides, the activity at 15 µM in the series with B16-F10 melanoma cells worked out at 170 ± 10.5%. For the same compound, the activity at 30 µM in the series with B16-F10 melanoma cells (30 μM) worked out at 216 ± 15.7%.
Turning to `COc1ccc([C@H]2COc3c(ccc(O)c3O)C2)c(OC)c1O` [Compound 23, (3S)-8-Demethylduartin], the “behaviour as substrate of mushroom tyrosinase (in words)” value at mushroom tyrosinase is given as “chromogenic substrate analog”. Besides, the inhibition at 200 µM at murine tyrosinase (setting [2]) was < 0%. Besides, in series [1] (setting [3]), the viability at 72 h, 15 µM came to 93.5 ± 3%. Moreover, the viability at 72 h, 30 µM in series [1] (setting [4]) came out at 98.3 ± 5.4%. Besides, in the series with B16-F10 melanoma cells, the activity at 15 µM was 87.8 ± 2%. Besides, the activity at 30 µM with B16-F10 melanoma cells (30 μM) was 72.7 ± 4.3%.
In the case of `O=c1cc(CO)occ1O` [Kojic acid, reference compound], the viability at 72 h, 15 µM in series [1] (setting [3]) amounted to 98.9 ± 4.7%. Moreover, the viability at 72 h, 30 µM in series [1] (setting [4]) is 99.6 ± 2.3%. Further, the activity at 15 µM in the series on B16-F10 melanoma cells amounted to 68.9 ± 5.2%. Further, in the series on B16-F10 melanoma cells (30 μM), the activity at 30 µM came out at 74.2 ± 5.8%.
